In the NIST ThermoML archive (doi:10.1016/j.fluid.2015.09.003):
± gives the expanded uncertainty stated by the source. One block for each compound: values may come before it.

Assay: activity coefficient (dimensionless); of the first substance listed, at infinite dilution; xn = mol fraction of the nth substance listed
Details: 101 kPa, Liquid, Chromatography, x1 = 0

SMILES: CC(C)O [propan-2-ol] + CCOS(=O)(=O)[O-].CC[n+]1cccc(C)c1
activity coefficient (323.24 K): 1 ± 0.03
activity coefficient (333.19 K): 0.97 ± 0.03
activity coefficient (343.14 K): 0.96 ± 0.03
activity coefficient (353.09 K): 0.94 ± 0.03
activity coefficient (363.06 K): 0.93 ± 0.03
activity coefficient (373 K): 0.92 ± 0.03

SMILES: CCC(C)=O [butanone] + CCOS(=O)(=O)[O-].CC[n+]1cccc(C)c1
activity coefficient (323.25 K): 2.7 ± 0.12
activity coefficient (333.2 K): 2.74 ± 0.12
activity coefficient (343.16 K): 2.78 ± 0.13
activity coefficient (353.1 K): 2.84 ± 0.13
activity coefficient (363.07 K): 2.88 ± 0.13
activity coefficient (372.99 K): 2.95 ± 0.13

SMILES: CC(=O)CC(C)C [4-methylpentan-2-one] + CCOS(=O)(=O)[O-].CC[n+]1cccc(C)c1
activity coefficient (333.2 K): 6.97 ± 0.32
activity coefficient (343.15 K): 6.99 ± 0.32
activity coefficient (353.08 K): 7.03 ± 0.32
activity coefficient (363.06 K): 7.05 ± 0.32
activity coefficient (372.99 K): 7.12 ± 0.33

SMILES: CC(C)=O [acetone] + CCOS(=O)(=O)[O-].CC[n+]1cccc(C)c1
activity coefficient (323.24 K): 1.78 ± 0.08
activity coefficient (333.19 K): 1.8 ± 0.08
activity coefficient (343.16 K): 1.84 ± 0.08
activity coefficient (353.11 K): 1.88 ± 0.08
activity coefficient (363.08 K): 1.92 ± 0.08
activity coefficient (372.99 K): 1.98 ± 0.09

SMILES: CO [methanol] + CCOS(=O)(=O)[O-].CC[n+]1cccc(C)c1
activity coefficient (323.26 K): 0.32 ± 0.04
activity coefficient (333.2 K): 0.33 ± 0.04
activity coefficient (343.15 K): 0.33 ± 0.04
activity coefficient (353.11 K): 0.33 ± 0.04
activity coefficient (363.07 K): 0.33 ± 0.04
activity coefficient (373 K): 0.33 ± 0.04

SMILES: CCCC(C)=O [pentan-2-one] + CCOS(=O)(=O)[O-].CC[n+]1cccc(C)c1
activity coefficient (333.2 K): 4.35 ± 0.2
activity coefficient (343.15 K): 4.38 ± 0.2
activity coefficient (353.12 K): 4.44 ± 0.2
activity coefficient (363.05 K): 4.46 ± 0.2
activity coefficient (372.99 K): 4.52 ± 0.21

SMILES: CC(=O)C(C)C [3-methyl-2-butanone] + CCOS(=O)(=O)[O-].CC[n+]1cccc(C)c1
activity coefficient (333.2 K): 4.51 ± 0.21
activity coefficient (343.15 K): 4.62 ± 0.21
activity coefficient (353.09 K): 4.73 ± 0.22
activity coefficient (363.06 K): 4.79 ± 0.22
activity coefficient (372.99 K): 4.95 ± 0.23

SMILES: CCC(C)O (stereo not given) [butan-2-ol] + CCOS(=O)(=O)[O-].CC[n+]1cccc(C)c1
activity coefficient (333.19 K): 1.27 ± 0.04
activity coefficient (343.14 K): 1.25 ± 0.04
activity coefficient (353.1 K): 1.24 ± 0.04
activity coefficient (363.05 K): 1.23 ± 0.04
activity coefficient (373 K): 1.23 ± 0.04

Second part, the compound after the results:

activity coefficient (353.09 K): 1.66 ± 0.07
activity coefficient (363.05 K): 1.59 ± 0.06
activity coefficient (373.01 K): 1.52 ± 0.06
SMILES: CCCCCO [pentan-1-ol] + CCOS(=O)(=O)[O-].CC[n+]1cccc(C)c1

activity coefficient (333.18 K): 0.6 ± 0.03
activity coefficient (343.13 K): 0.59 ± 0.03
activity coefficient (353.1 K): 0.58 ± 0.03
activity coefficient (363.09 K): 0.58 ± 0.03
activity coefficient (373.01 K): 0.57 ± 0.03
SMILES: CCO [ethanol] + CCOS(=O)(=O)[O-].CC[n+]1cccc(C)c1

activity coefficient (353.1 K): 1.13 ± 0.03
activity coefficient (363.06 K): 1.1 ± 0.03
activity coefficient (373 K): 1.08 ± 0.03
SMILES: CCCCO [butan-1-ol] + CCOS(=O)(=O)[O-].CC[n+]1cccc(C)c1

activity coefficient (333.18 K): 0.81 ± 0.03
activity coefficient (343.13 K): 0.8 ± 0.03
activity coefficient (353.1 K): 0.8 ± 0.03
activity coefficient (363.06 K): 0.79 ± 0.03
activity coefficient (373 K): 0.78 ± 0.03
SMILES: CCCO [propan-1-ol] + CCOS(=O)(=O)[O-].CC[n+]1cccc(C)c1
